The text below walks through data of PubChem BioAssay AID1259407 (Chemical Carcinogenesis Research Information System (CCRIS), 2018).

The source made the active and inactive calls. No rule for the calls is given here.

The data set relates to CCRIS mutagenicity, Ames/micronucleus/aberration tests. Kind of data set: CCRIS mutagenicity studies.
Setting [1] is: Test System: AMES SALMONELLA TYPHIMURIUM, Strain/Indicator: TA98, Metabolic Activation: NONE, Method: PREINCUBATION
[2] abbreviates: Test System: AMES SALMONELLA TYPHIMURIUM, Strain/Indicator: TA100, Metabolic Activation: NONE, Method: PREINCUBATION
Setting [3] is: Test System: AMES SALMONELLA TYPHIMURIUM, Strain/Indicator: TA98, Metabolic Activation: NONE, Method: STANDARD PLATE.
[4] abbreviates: Test System: AMES SALMONELLA TYPHIMURIUM, Strain/Indicator: TA100, Metabolic Activation: NONE, Method: STANDARD PLATE.

Consider `CC(=O)Nc1cccc2c1-c1ccccc1C2`, for which the mutagenic call is “inactive; negative” (Test System: AMES SALMONELLA TYPHIMURIUM, Strain/Indicator: TA98, Metabolic Activation: HUMAN, RED BLOOD CELL, CYTOSOL, Method: PREINCUBATION); “inactive; negative” (Test System: AMES SALMONELLA TYPHIMURIUM, Strain/Indicator: TA1538, Metabolic Activation: RAT, LIVER, CYTOSOL, 4-ACETYLAMINOFLUORENE, Method: STANDARD PLATE); “active; positive” (Test System: AMES SALMONELLA TYPHIMURIUM, Strain/Indicator: TA1538, Metabolic Activation: RAT, LIVER, CYTOSOL, AROCLOR 1254, Method: STANDARD PLATE); “inactive; negative” (Test System: AMES SALMONELLA TYPHIMURIUM, Strain/Indicator: TA1538, Metabolic Activation: RAT, LIVER, CYTOSOL, Method: STANDARD PLATE); “active; positive” (Test System: AMES SALMONELLA TYPHIMURIUM, Strain/Indicator: TA1538, Metabolic Activation: RAT, LIVER, MICROSOMES, 4-ACETYLAMINOFLUORENE, Method: STANDARD PLATE); “active; positive” (Test System: AMES SALMONELLA TYPHIMURIUM, Strain/Indicator: TA1538, Metabolic Activation: RAT, LIVER, MICROSOMES, AROCLOR 1254, Method: STANDARD PLATE). The mutagenic call reads like this: (Test System: AMES SALMONELLA TYPHIMURIUM, Strain/Indicator: TA1538, Metabolic Activation: RAT, LIVER, MICROSOMES, Method: STANDARD PLATE) “inactive; negative”; (Test System: AMES SALMONELLA TYPHIMURIUM, Strain/Indicator: TA1538, Metabolic Activation: RAT, LIVER, S-9, PHENOBARBITAL, Method: STANDARD PLATE) “active; positive”; (Test System: E. COLI, Strain/Indicator: WP2 UVRA, Metabolic Activation: HAMSTER, LIVER, S-9, AROCLOR 1254, Method: STANDARD PLATE) “inactive; negative”; (Test System: E. COLI, Strain/Indicator: WP2 UVRA, Metabolic Activation: HAMSTER, LIVER, S-9, Method: STANDARD PLATE) “inactive; negative”; (Test System: E. COLI, Strain/Indicator: WP2 UVRA, Metabolic Activation: MOUSE, LIVER, S-9, AROCLOR 1254, Method: STANDARD PLATE) “inactive; negative”; (Test System: E. COLI, Strain/Indicator: WP2 UVRA, Metabolic Activation: MOUSE, LIVER, S-9, Method: STANDARD PLATE) “inactive; negative”. Besides, the mutagenic call (Test System: E. COLI, Strain/Indicator: WP2 UVRA, Metabolic Activation: NONE, Method: STANDARD PLATE) is “inactive; negative”; the mutagenic call (Test System: E. COLI, Strain/Indicator: WP2 UVRA, Metabolic Activation: RAT, LIVER, S-9, AROCLOR 1254, Method: STANDARD PLATE) was “inactive; negative”; the mutagenic call (Test System: E. COLI, Strain/Indicator: WP2 UVRA, Metabolic Activation: RAT, LIVER, S-9, Method: STANDARD PLATE) was “inactive; negative”; the mutagenic call (Test System: MOUSE LYMPHOMA, Strain/Indicator: L5178Y (TK+/TK-), Metabolic Activation: NONE, Method: SUSPENSION/PLATE) was “inactive; negative”; the mutagenic call (Test System: UDS, Strain/Indicator: HEPG2/THYMIDINE INCORPORATION, Metabolic Activation: NONE, Method: AUTORADIOGRAPHY) is “inactive; negative”.

As to `CC(=O)Nc1ccc(Oc2ccc(N(O)C=O)cc2)cc1`, the mutagenic call reads like this: (Test System: AMES SALMONELLA TYPHIMURIUM, Strain/Indicator: TA98(1,8-DNP6), Metabolic Activation: NONE, Method: PREINCUBATION) “active; positive”; (Test System: AMES SALMONELLA TYPHIMURIUM, Strain/Indicator: TA98(1,8-DNP6), Metabolic Activation: RAT, LIVER, S-9, AROCLOR 1254, Method: PREINCUBATION) “active; positive”; (Test System: AMES SALMONELLA TYPHIMURIUM, Strain/Indicator: TA98(NR), Metabolic Activation: NONE, Method: PREINCUBATION) “active; positive”; (Test System: AMES SALMONELLA TYPHIMURIUM, Strain/Indicator: TA98(NR), Metabolic Activation: RAT, LIVER, S-9, AROCLOR 1254, Method: PREINCUBATION) “active; positive”; under setting [1], “active; positive”; (Test System: AMES SALMONELLA TYPHIMURIUM, Strain/Indicator: TA98, Metabolic Activation: RAT, LIVER, S-9, AROCLOR 1254, Method: PREINCUBATION) “active; positive”. The mutagenic call is, setting by setting: (Test System: AMES SALMONELLA TYPHIMURIUM, Strain/Indicator: TA100(NR), Metabolic Activation: NONE, Method: PREINCUBATION) “active; positive”; (Test System: AMES SALMONELLA TYPHIMURIUM, Strain/Indicator: TA100(NR), Metabolic Activation: RAT, LIVER, S-9, AROCLOR 1254, Method: PREINCUBATION) “active; positive”; under setting [2], “active; positive”; (Test System: AMES SALMONELLA TYPHIMURIUM, Strain/Indicator: TA100, Metabolic Activation: RAT, LIVER, S-9, AROCLOR 1254, Method: PREINCUBATION) “active; positive”.

Take `Cc1ccc2c3c(cc4ccccc42)-c2ccccc2-c13`: under “Test System: AMES SALMONELLA TYPHIMURIUM, Strain/Indicator: TA100, Metabolic Activation: RAT, LIVER, S-9, AROCLOR 1254”, the mutagenic call was “active; positive”.

As for `O=C(O)c1cc(Cl)cc(Cl)c1`, the mutagenic call was “inactive; negative” under setting [1]; “inactive; negative” (Test System: AMES SALMONELLA TYPHIMURIUM, Strain/Indicator: TA98, Metabolic Activation: RAT LIVER S-9, PCB, Method: PREINCUBATION); “inactive; negative” under setting [2]; “inactive; negative” (Test System: AMES SALMONELLA TYPHIMURIUM, Strain/Indicator: TA100, Metabolic Activation: RAT LIVER S-9, PCB, Method: PREINCUBATION); “inactive; negative” (Test System: AMES SALMONELLA TYPHIMURIUM, Strain/Indicator: TA104, Metabolic Activation: NONE, Method: PREINCUBATION); “inactive; negative” (Test System: AMES SALMONELLA TYPHIMURIUM, Strain/Indicator: TA104, Metabolic Activation: RAT LIVER S-9, PCB, Method: PREINCUBATION). Also, the mutagenic call is “inactive; negative” (Test System: E.COLI, Strain/Indicator: WP2 UVRA, Metabolic Activation: NONE, Method: PREINCUBATION) and “inactive; negative” (Test System: E.COLI, Strain/Indicator: WP2 UVRA, Metabolic Activation: RAT LIVER S-9, PCB, Method: PREINCUBATION).

On to `CS(=O)CCCCN=C=S` (stereo not given), for which, for the setting “End Point: IN VITRO MICRONUCLEUS, Test System: HUMAN T-LYMPHOCYTES, Metabolic Activation: NONE”, the mutagenic call is “inactive; negative”.

In the case of `CC(C)=CC1C(C(=O)O)C1(C)C` (stereo not given), the mutagenic call was “inactive; negative” under setting [3]; “inactive; negative” (Test System: AMES SALMONELLA TYPHIMURIUM, Strain/Indicator: TA98, Metabolic Activation: RAT, LIVER, S-9, AROCLOR 1254, Method: STANDARD PLATE); “inactive; negative” under setting [4]; “inactive; negative” (Test System: AMES SALMONELLA TYPHIMURIUM, Strain/Indicator: TA100, Metabolic Activation: RAT, LIVER, S-9, AROCLOR 1254, Method: STANDARD PLATE); “inactive; negative” (Test System: AMES SALMONELLA TYPHIMURIUM, Strain/Indicator: TA1535, Metabolic Activation: NONE, Method: STANDARD PLATE); “inactive; negative” (Test System: AMES SALMONELLA TYPHIMURIUM, Strain/Indicator: TA1535, Metabolic Activation: RAT, LIVER, S-9, AROCLOR 1254, Method: STANDARD PLATE). The mutagenic call was “inactive; negative” (Test System: AMES SALMONELLA TYPHIMURIUM, Strain/Indicator: TA1537, Metabolic Activation: NONE, Method: STANDARD PLATE); “inactive; negative” (Test System: AMES SALMONELLA TYPHIMURIUM, Strain/Indicator: TA1537, Metabolic Activation: RAT, LIVER, S-9, AROCLOR 1254, Method: STANDARD PLATE); “inactive; negative” (Test System: E. COLI, Strain/Indicator: WP2, Metabolic Activation: NONE, Method: STANDARD PLATE); “inactive; negative” (Test System: E. COLI, Strain/Indicator: WP2, Metabolic Activation: RAT, LIVER, S-9, AROCLOR 1254, Method: STANDARD PLATE).

As for `CC\C=C/C=C\C=C/C=C\C=C/OCC(O)CO` (stereo not given), the mutagenic call by setting is: under setting [3], “active; positive”; under setting [4], “active; positive”; (Test System: AMES SALMONELLA TYPHIMURIUM, Strain/Indicator: TA104, Metabolic Activation: NONE, Method: STANDARD PLATE) “active; positive”.
